According to patent publication US20150191459A1, “CATHEPSIN INHIBITORS” (ViroBay, Inc., priority 2013, published 2015):

Target: Human cathepsin B (Homo sapiens, UniProt P07858)
Assay: Cathepsin B Assay
Type: biochemical
Conditions: apparent inhibition constant; Boc-Leu-Arg-Arg-AMC substrate; pH 6; 30 minutes pre-incubation; read-out: cat B Ki
Protocol: Solutions of test compounds in varying concentrations were prepared in 10 μL of dimethyl sulfoxide (DMSO) and then diluted into assay buffer (40 μL, comprising: N,N-bis(2-hydroxyethyl)-2-aminoethanesulfonic acid (BES), 50 mM (pH 6); polyoxyethylenesorbitan monolaurate, 0.05%; and dithiothreitol (DTT), 2.5 mM). Human cathepsin B (0.025 pMoles in 25 μL of assay buffer) was added to the dilutions. The assay solutions were mixed for 5-10 seconds on a shaker plate, covered and incubated for 30 minutes at ambient temperature. Boc-Leu-Arg-Arg-AMC (20 μM in 1% DMSO) was added to the assay solutions and hydrolysis was followed spectrophotometrically at (λ 460 nm) for 5 minutes. Apparent inhibition constants (Ki) were calculated from the enzyme progress curves using standard mathematical models.

Row | SMILES | Ki [nM]
1 | N#CC1(NC(=O)[C@H](Cc2cc(Cl)c(O)c(Cl)c2)N[C@@H](c2ccc(Br)cc2)C(F)(F)F)CC1 [N-(1-Cyanocyclopropyl)-2S-[2,2,2-trifluoro-1S-(4-bromophenyl)-ethylamino]-3-(3,5-dichloro-4-hydroxyphenyl)-propanamide] | 45
2 | N#CC1(NC(=O)[C@H](Cc2cc(I)c(O)c(I)c2)N[C@@H](c2ccc(Br)cc2)C(F)(F)F)CC1 [N-(1-Cyanocyclopropyl)-2S-[2,2,2-trifluoro-1S-(4-bromophenyl)-ethylamino]-3-(3,5-diiodo-4-hydroxyphenyl)-propanamide] | 13
3 | N#CC1(NC(=O)[C@H](Cc2cc(Cl)c(O)c(Cl)c2)N[C@@H](c2ccc(F)cc2)C(F)(F)F)CC1 [N-(1-Cyanocyclopropyl)-2S-[2,2,2-trifluoro-1S-(4-fluorophenyl)-ethylamino]-3-(3,5-dichloro-4-hydroxyphenyl)-propanamide] | 130
4 | N#CCNC(=O)[C@H](Cc1cc(I)c(O)c(I)c1)N[C@@H](c1ccc(Br)cc1)C(F)(F)F [N-Cyanomethyl-2S-[2,2,2-trifluoro-1S-(4-bromophenyl)-ethylamino]-3-(3,5-diiodo-4-hydroxyphenyl)-propanamide] | 3.5
5 | CC[C@H](NC(=O)[C@H](Cc1cc(Cl)c(O)c(Cl)c1)N[C@@H](c1ccc(F)cc1)C(F)(F)F)C(=O)C(=O)NC1CC1 [N-Cyclopropyl-3S-{3-[3,5-dichloro-4-hydroxyphenyl)-2S-(2,2,2-trifluoro)-1S-(4-fluorophenyl)ethylamino]propionylamino}-2-oxopentanamide] | ≤ 1
6 | CC[C@H](NC(=O)[C@H](Cc1cc(Cl)c(O)c(Cl)c1)N[C@@H](c1ccc(Br)cc1)C(F)(F)F)C(=O)C(=O)NC1CC1 [N-cyclopropyl-3S-{3-[3,5-dichloro-4-hydroxyphenyl)-2S-(2,2,2-trifluoro)-1S-(4-bromophenyl)ethylamino]propionylamino}-2-oxopentanamide] | 1.53
7 | CC[C@H](NC(=O)[C@H](Cc1cc(I)c(O)c(I)c1)N[C@@H](c1ccc(Br)cc1)C(F)(F)F)C(=O)C(=O)NC1CC1 [N-cyclopropyl-3S-{3-[3,5-diiodo-4-hydroxyphenyl)-2S-(2,2,2-trifluoro)-1S-(4-bromophenyl)ethylamino]propionylamino}-2-oxopentanamide] | 1.28
8 | CC[C@H](NC(=O)[C@H](Cc1cc(I)c(O)c(I)c1)N[C@@H](c1ccc(F)cc1)C(F)(F)F)C(=O)C(=O)NC1CC1 [N-cyclopropyl-3S-{3-[3,5-diiodo-4-hydroxyphenyl)-2S-(2,2,2-trifluoro)-1S-(4-fluorophenyl)ethylamino]propionylamino}-2-oxopentanamide] | 1.16
